Values joined by “and” are separate entries in the source; they are usually repeats but may differ in a detail not shown here. Identical values can stand only once. Toxic doses and inconclusive results are not listed. The calls were made as follows: active = survival T/C of 150% or more; inactive = T/C below 125% in these data.
Test system: P388 leukemia ip, CD2F1 mice, survival T/C
Assay: NCI In Vivo Anticancer Drug Screen. Data for tumor model P388 Leukemia (intraperitoneal) in CD2F1 (CDF1) mice
Settings: endpoint: median survival time, higher = longer survival
In short: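 Mice carrying the transplanted tumor received test compound or vehicle. Survival was recorded in each group, and the value is the treated-group measurement divided by that of the vehicle-treated control group.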

[1] = dose: 200.0 mg/kg/injection, schedule: Q01DX009 (ip), vehicle: saline with Tween-80
[2] = dose: 60.0 mg/kg/injection, schedule: Q01DX005 (ip), vehicle: saline
[3] = dose: 120.0 mg/kg/injection, schedule: Q01DX005 (ip), vehicle: saline
[4] = dose: 240.0 mg/kg/injection, schedule: Q01DX005 (ip), vehicle: saline
[5] = dose: 50.0 mg/kg/injection, schedule: Q01DX009 (ip), vehicle: saline with Tween-80
[6] = dose: 100.0 mg/kg/injection, schedule: Q01DX009 (ip), vehicle: saline with Tween-80
[7] = dose: 50.0 mg/kg/injection, schedule: Q01DX005 (ip), vehicle: saline with Tween-80
[8] = dose: 100.0 mg/kg/injection, schedule: Q01DX005 (ip), vehicle: saline with Tween-80
[9] = dose: 200.0 mg/kg/injection, schedule: Q01DX005 (ip), vehicle: saline with Tween-80
[10] = dose: 100.0 mg/kg/injection, schedule: Q04DX003 (ip), vehicle: Klucel (hydroxypropylcellulose) (HPC)
[11] = dose: 200.0 mg/kg/injection, schedule: Q04DX003 (ip), vehicle: Klucel (hydroxypropylcellulose) (HPC)
[12] = dose: 400.0 mg/kg/injection, schedule: Q04DX003 (ip), vehicle: Klucel (hydroxypropylcellulose) (HPC)
[13] = dose: 25.0 mg/kg/injection, schedule: Q01DX009 (ip), vehicle: saline with Tween-80

Measured: T/C

Nc1nc2c(ncn2C2OC(CO)C(O)C2O)c(=O)[nH]1 (centres undefined)
inactive: dose: 25.0 mg/kg/injection, schedule: Q04DX003 (ip), vehicle: saline with Tween-80 103 % of control and 106 % of control | dose: 50.0 mg/kg/injection, schedule: Q04DX003 (ip), vehicle: saline with Tween-80 120 % of control | dose: 100.0 mg/kg/injection, schedule: Q01DX009 (ip), vehicle: suspension in saline 110 % of control | dose: 100.0 mg/kg/injection, schedule: Q04DX003 (ip), vehicle: saline with Tween-80 90 % of control | [1] 111 % of control | dose: 200.0 mg/kg/injection, schedule: Q01DX009 (ip), vehicle: suspension in saline 92 % of control | dose: 300.0 mg/kg/injection, schedule: Q01DX009 (ip), vehicle: saline with Tween-80 106 % of control | dose: 400.0 mg/kg/injection, schedule: Q01DX009 (ip), vehicle: saline with Tween-80 102 % of control | dose: 400.0 mg/kg/injection, schedule: Q01DX009 (ip), vehicle: suspension in saline 119 % of control and 97 % of control | dose: 400.0 mg/kg/injection, schedule: Q04DX003 (ip), vehicle: saline with Tween-80 100 % of control | dose: 600.0 mg/kg/injection, schedule: Q01DX009 (ip), vehicle: saline with Tween-80 90 % of control | dose: 800.0 mg/kg/injection, schedule: Q01DX009 (ip), vehicle: saline with Tween-80 114 % of control | dose: 800.0 mg/kg/injection, schedule: Q01DX009 (ip), vehicle: suspension in saline 113 % of control and 94 % of control | dose: 1200.0 mg/kg/injection, schedule: Q01DX009 (ip), vehicle: saline with Tween-80 95 % of control | dose: 1600.0 mg/kg/injection, schedule: Q01DX009 (ip), vehicle: saline with Tween-80 99 % of control | dose: 1600.0 mg/kg/injection, schedule: Q01DX009 (ip), vehicle: suspension in saline 112 % of control and 95 % of control | dose: 2400.0 mg/kg/injection, schedule: Q01DX009 (ip), vehicle: saline with Tween-80 100 % of control | dose: 2400.0 mg/kg/injection, schedule: Q01DX009 (ip), vehicle: suspension in saline 117 % of control

O=C1c2ccccc2C(=O)c2c(O)c(O)cc(O)c21
inactive: [2] 94 % of control | [3] 91 % of control | [4] 94 % of control

N#CC1CPCCC1N (centres undefined)
inactive: [5] 102 % of control | [6] 106 % of control | [1] 114 % of control

CCN(CC)c1nc(Cl)nc(N(CC)CC)n1
inactive: dose: 25.0 mg/kg/injection, schedule: Q01DX005 (ip), vehicle: saline with Tween-80 99 % of control and 97 % of control | [7] 103 % of control [middle of 4 runs] | [8] 106 % of control and 101 % of control and 107 % of control | [9] 113 % of control [middle of 4 runs] | dose: 400.0 mg/kg/injection, schedule: Q01DX005 (ip), vehicle: saline with Tween-80 100 % of control

CCC1=CCCN(Cc2ccccc2)C1C#N (centres undefined)
inactive: dose: 7.5 mg/kg/injection, schedule: Q01DX005 (ip), vehicle: Klucel (hydroxypropylcellulose) (HPC) 106 % of control | dose: 15.0 mg/kg/injection, schedule: Q01DX005 (ip), vehicle: Klucel (hydroxypropylcellulose) (HPC) 111 % of control | dose: 30.0 mg/kg/injection, schedule: Q01DX005 (ip), vehicle: Klucel (hydroxypropylcellulose) (HPC) 118 % of control

N#CCC(=O)O
inactive: dose: 18.75 mg/kg/injection, schedule: Q04DX003 (ip), vehicle: saline 100 % of control | dose: 37.5 mg/kg/injection, schedule: Q04DX003 (ip), vehicle: saline 100 % of control | dose: 75.0 mg/kg/injection, schedule: Q04DX003 (ip), vehicle: saline 90 % of control

COC(=O)C1c2ccccc2C(C(=O)OC)C(C(=O)OC)C(C(=O)OC)c2ccccc21 (centres undefined)
inactive: [10] 102 % of control | [11] 102 % of control | [12] 99 % of control

O=c1cc(O)n2ncnc2[nH]1
inactive: [13] 101 % of control | [5] 104 % of control | [6] 104 % of control | [1] 99 % of control

COc1cc(NCCCN=C(N)N)c2ncccc2c1
inactive: dose: 1.56 mg/kg/injection, schedule: Q01DX005 (ip), vehicle: saline with Tween-80 99 % of control | dose: 3.13 mg/kg/injection, schedule: Q01DX005 (ip), vehicle: saline with Tween-80 98 % of control | dose: 6.25 mg/kg/injection, schedule: Q01DX005 (ip), vehicle: saline with Tween-80 102 % of control and 92 % of control

Nc1nccc(NCCCCCCNc2ccnc(N)n2)n1
inactive: dose: 12.5 mg/kg/injection, schedule: Q04DX002 (ip), vehicle: saline 104 % of control and 108 % of control | dose: 25.0 mg/kg/injection, schedule: Q04DX002 (ip), vehicle: saline 106 % of control and 114 % of control | dose: 50.0 mg/kg/injection, schedule: Q04DX002 (ip), vehicle: saline 105 % of control and 114 % of control | dose: 100.0 mg/kg/injection, schedule: Q04DX002 (ip), vehicle: saline 114 % of control and 119 % of control | dose: 200.0 mg/kg/injection, schedule: Q04DX002 (ip), vehicle: saline 116 % of control and 123 % of control

CCN(CCO)CC(O)Cn1cnc2c(N)ncnc21 (centres undefined) (tested in a mixture with another compound)
inactive: [2] 97 % of control | [3] 100 % of control | [4] 95 % of control

CC1CC(C)(C)C(c2ccccc2)C(=O)O1 (centres undefined)
inactive: [10] 106 % of control | [11] 100 % of control | [12] 114 % of control

OCCN1C(c2ccccc2)=CN2C=CSC21 (centres undefined)
inactive: dose: 100.0 mg/kg/injection, schedule: Q04DX002 (ip), vehicle: saline with Tween-80 97 % of control | dose: 200.0 mg/kg/injection, schedule: Q04DX002 (ip), vehicle: saline with Tween-80 94 % of control | dose: 400.0 mg/kg/injection, schedule: Q04DX002 (ip), vehicle: saline with Tween-80 97 % of control

NC(N)=NS(=O)(=O)c1ccc(N=c2c3ccccc3n(-c3ccccc3)c3ccccc23)cc1
inactive: [7] 90 % of control | [8] 87 % of control

CC1OC(OC2C(O[C@H]3CC[C@@]4(C)C(=CC[C@H]5[C@@H]6C[C@@H]7O[C@]8(CC[C@H](C)CN8)[C@@H](C)[C@@H]7[C@@]6(C)CC[C@@H]54)C3)OC(CO)C(O)C2OC2OC(CO)C(O)C(O)C2O)C(O)C(O)C1O (some centres undefined)
inactive: dose: 6.25 mg/kg/injection, schedule: Q01DX009 (ip), vehicle: saline with Tween-80 90 % of control | dose: 12.5 mg/kg/injection, schedule: Q01DX009 (ip), vehicle: saline with Tween-80 86 % of control | [13] 90 % of control

OCCCCCOCCOCCOCCOCCOCCCCCO
inactive: [7] 101 % of control | [8] 101 % of control | [9] 96 % of control

c1ccc2c(c1)ccc1c[n+]3ccccc3cc12
inactive: dose: 0.25 mg/kg/injection, schedule: Q01DX009 (ip), vehicle: saline 100 % of control | dose: 0.5 mg/kg/injection, schedule: Q01DX009 (ip), vehicle: saline 104 % of control | dose: 1.0 mg/kg/injection, schedule: Q01DX009 (ip), vehicle: saline 100 % of control | dose: 1.25 mg/kg/injection, schedule: Q04DX003 (ip), vehicle: other 100 % of control | dose: 2.5 mg/kg/injection, schedule: Q04DX003 (ip), vehicle: other 107 % of control

CCn1c2ccccc2c2cc(N)c(N=Nc3ccc(-c4ccc(N)c(OC)c4)cc3OC)cc21
inactive: [10] 94 % of control | [11] 95 % of control | [12] 88 % of control

CCOC(=O)NC(=S)c1ccc[nH]1
inactive: dose: 12.5 mg/kg/injection, schedule: Q01DX009 (ip), vehicle: Klucel (hydroxypropylcellulose) (HPC) 95 % of control | dose: 25.0 mg/kg/injection, schedule: Q01DX009 (ip), vehicle: Klucel (hydroxypropylcellulose) (HPC) 87 % of control | dose: 50.0 mg/kg/injection, schedule: Q01DX009 (ip), vehicle: Klucel (hydroxypropylcellulose) (HPC) 95 % of control and 98 % of control

O=C(NC(Cc1ccccc1)C(=O)O)OCc1ccccc1 (centres undefined) (tested in a mixture with another compound)
inactive: dose: 6.25 mg/kg/injection, schedule: Q01DX005 (ip), vehicle: Klucel (hydroxypropylcellulose) (HPC) 109 % of control | dose: 12.5 mg/kg/injection, schedule: Q01DX005 (ip), vehicle: Klucel (hydroxypropylcellulose) (HPC) 106 % of control | dose: 25.0 mg/kg/injection, schedule: Q01DX005 (ip), vehicle: Klucel (hydroxypropylcellulose) (HPC) 94 % of control

COc1cc(OC)c(C2SCC(=O)N2c2nnc(C(F)(F)F)s2)c(OC)c1 (centres undefined)
inactive: dose: 50.0 mg/kg/injection, schedule: Q01DX005 (ip), vehicle: saline + Tween-80 + alcohol 109 % of control | dose: 100.0 mg/kg/injection, schedule: Q01DX005 (ip), vehicle: saline + Tween-80 + alcohol 102 % of control | dose: 200.0 mg/kg/injection, schedule: Q01DX005 (ip), vehicle: saline + Tween-80 + alcohol 92 % of control

Reference: PubChem BioAssay AID330 (DTP/NCI, 2004)
